From patent publication US5696155A, “Dibenz[b,e]oxepin derivatives and pharmaceutical agents which contain them” (Boehringer Mannheim BmbH, priority 1993, dated 1997) come the findings set out here.

The assay has as its target T1, human recombinant type II PLA2 (=synovial PLA2) (Homo sapiens, UniProt P14555).
T1 sequence (P14555 21-144): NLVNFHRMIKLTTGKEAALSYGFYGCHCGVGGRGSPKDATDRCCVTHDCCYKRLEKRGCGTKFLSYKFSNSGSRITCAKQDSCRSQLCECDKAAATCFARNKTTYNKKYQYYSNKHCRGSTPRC
The assay is described as follows: Inhibition of PLA2 activity (sPLA2 enzyme activity, in vitro). It counts as biochemical. The settings on record: means of 3 experiments (duplicate determinations); for inhibition at 0.1 µg/mL: concentration 0.1 μg/ml; for inhibition at 1 µg/mL: concentration 1 μg/ml; for inhibition at 10 µg/mL: concentration 10 μg/ml. An excerpt:
Inhibition of PLA2 activity
The human recombinant type II PLA2 (=synovial PLA2) as a typical representative of a PLA2 was used for the test.
This documents the superiority of the new sPLA2 inhibitors compared to a cyclooxygenase inhibitor.

For `CCOC(=O)c1cc(=O)c2cc3c(cc2o1)OCc1cc(O)ccc1C3=O` [Ex.2c), 7,13-dihydro-2-hydroxy-5H-10,12-dioxabenzo[4,5]cyclohepta[1,2-b]-naphthalen-5,7-dione-9-carboxylic acid ethyl ester], the inhibition at 0.1 µg/mL was found to be 12%, the inhibition at 1 µg/mL came out at 73% and the inhibition at 10 µg/mL was found to be 78%.
For `CCOC(=O)c1cc(=O)c2c3c(ccc2o1)C(=O)c1ccc(O)cc1CO3` [Ex.2a), 7,12-dihydro-10-hydroxy-1H-4,13-dioxabenzo[4,5]cyclohepta[1,2-a]-naphthalene-1,7-dione-3-carboxylic acid-ethyl ester], in that order: 28%, 52% and 61%.
As for `COc1ccc2c(c1)c(CC(=O)O)c(C)n2C(=O)c1ccc(Cl)cc1` [Indomethacin, reference compound], the inhibition at 1 µg/mL stood at 0%.
For the molecule `CCCCCCCCOc1ccc2c(c1)COc1c(cc3c(=O)cc(C(=O)OCC)oc3c1CCC)C2=O` [Ex.4a), 7,13-dihydro-2-octyloxy-11-propyl-5H-10,12-dioxabenzo-[4,5]cyclo-hepta[1,2-b]naphthalen-5,7-dione-9-carboxylic acid ethyl ester], the inhibition at 0.1 µg/mL amounted to 16%, the inhibition at 1 µg/mL stood at 17% and the inhibition at 10 µg/mL came to 49%.

As a reminder, the inhibition is the share of the control response that was lost under treatment.
